One series has as its system HCT-116 cells. Nature of the series: MTT cytotoxicity assay, HCT-116. The settings on record: Homo sapiens, incubation time 24 h, mean ± SD (n = 3). The series is classed as cell-based. In general terms: Tetrazolium assays rely on reduction of a dye to a coloured formazan, in cell work by metabolically active cells.
For the next series, the system named is MCF-7 cells. Put plainly: MTT cytotoxicity assay, MCF-7. The series is classed as cell-based. The settings on record: Homo sapiens, MCF7, incubation time 72 h, mean ± SD (n = 3). Here is the method: In vitro cytotoxicity studies of the obtained building blocks and glycoconjugates were carried out on cell lines characterized by the high expression of GLUT transporters and the strongly changed glucose metabolism (strong Warburg effect). […] Cytotoxicity was evaluated using the MTT assay.
The human cell line MCF-7 was obtained from collections at the Maria Sklodowska-Curie Memorial Cancer Center and Institute of Oncology, branch in Gliwice, Poland. […] The culture media were purchased from EuroClone and HyClone. Fetal bovine serum (FBS) was delivered by EURx, Poland, and Antibiotic Antimycotic Solution (100×) by Sigma-Aldrich, Germany. The cells were cultured under standard conditions at 37 °C in a humidified atmosphere at 5% CO2.
The viability of the cells was determined using an MTT (3-[4,5–dimethylthiazol-2-yl]-2,5-diphenyltetrazolium bromide) test (Sigma-Aldrich). Stock solutions of tested compounds were prepared in DMSO and diluted with the appropriate volumes of the growth medium directly before the experiment. […] The cell cultures were incubated for 24 h at 37 °C in a humidified atmosphere of 5% CO2. Then, the culture medium was removed, replaced with the solution of the tested compounds in medium with varying concentrations, and incubated for further 24 h or 72 h. After that, the medium was removed, and the MTT solution (50 µL, 0.5 mg/mL in PBS) was added. After 3 h of incubation, the MTT solution was removed, and the precipitated formazan was dissolved in DMSO. Finally, the absorbance at the 570 nm wavelength was measured spectrophotometrically with the plate reader. The experiment was conducted in at least three independent iterations with four technical repetitions. The IC50 values were calculated using CalcuSyn software (version 2.0, Biosoft, Cambridge, UK).

Series [1] deals with T1, β-galactosidase from Aspergillus oryzae (Aspergillus oryzae, UniProt Q2UCU3).
T1 construct: purchased Sigma-Aldrich G5160
Nature of the series: Glycoconjugate stability under the action of β-galactosidase (hydrolysis followed by TLC). To be noted: 0.089 unit enzyme, 5 mM substrate, phosphate-citrate buffer pH 4.5, 30 °C, TLC at 10 min to 24 h. The series is classed as in vitro ADME. Here is the method: As part of the research, the effect of introducing a sulfur atom into the anomeric position of sugar was assessed. […] This was particularly evident for the 8-HQ derivatives 51 and 52, for which the cytotoxic activity was about twice as high as that of their structural counterparts with an anomeric oxygen atom (Figure 3). Unfortunately, an increase in cytotoxicity for glycoconjugates containing anomeric sulfur was observed, both to neoplastic cells and to healthy cells. […] In order to verify this assumption, two galactoconjugates 56 and 64 (being the deprotected counterparts of galactoconjugates 52 and 60) and their two analogs with anomeric oxygen were chosen and subjected to hydrolysis reactions using β-galactosidase from Aspergillus oryzae.
8-Hydroxyquinoline Glycoconjugates Containing
Sulfur at the Sugar Anomeric Position - Synthesis and Preliminary Evaluation of Their Cytotoxicity […]
The following reagents were pipetted into a test tube: 0.4 mL of 20 mM Phosphate-Citrate Buffer (C) and 0.5 mL of the appropriate 10 mM Substrate Solution ( D1-D4), which then thoroughly mixed and equilibrated to 30 °C with a thermoblock. […] The progress of the reactions was monitored by thin-layer chromatography (TLC) in a CHCl3:CH3OH (5:1) eluents system. […]

Usually IC50 stands for the point on the concentration scale where inhibition reaches its midpoint. The low end stands for higher potency, the high end for lower potency.

T1 sequence (Q2UCU3 19-1005): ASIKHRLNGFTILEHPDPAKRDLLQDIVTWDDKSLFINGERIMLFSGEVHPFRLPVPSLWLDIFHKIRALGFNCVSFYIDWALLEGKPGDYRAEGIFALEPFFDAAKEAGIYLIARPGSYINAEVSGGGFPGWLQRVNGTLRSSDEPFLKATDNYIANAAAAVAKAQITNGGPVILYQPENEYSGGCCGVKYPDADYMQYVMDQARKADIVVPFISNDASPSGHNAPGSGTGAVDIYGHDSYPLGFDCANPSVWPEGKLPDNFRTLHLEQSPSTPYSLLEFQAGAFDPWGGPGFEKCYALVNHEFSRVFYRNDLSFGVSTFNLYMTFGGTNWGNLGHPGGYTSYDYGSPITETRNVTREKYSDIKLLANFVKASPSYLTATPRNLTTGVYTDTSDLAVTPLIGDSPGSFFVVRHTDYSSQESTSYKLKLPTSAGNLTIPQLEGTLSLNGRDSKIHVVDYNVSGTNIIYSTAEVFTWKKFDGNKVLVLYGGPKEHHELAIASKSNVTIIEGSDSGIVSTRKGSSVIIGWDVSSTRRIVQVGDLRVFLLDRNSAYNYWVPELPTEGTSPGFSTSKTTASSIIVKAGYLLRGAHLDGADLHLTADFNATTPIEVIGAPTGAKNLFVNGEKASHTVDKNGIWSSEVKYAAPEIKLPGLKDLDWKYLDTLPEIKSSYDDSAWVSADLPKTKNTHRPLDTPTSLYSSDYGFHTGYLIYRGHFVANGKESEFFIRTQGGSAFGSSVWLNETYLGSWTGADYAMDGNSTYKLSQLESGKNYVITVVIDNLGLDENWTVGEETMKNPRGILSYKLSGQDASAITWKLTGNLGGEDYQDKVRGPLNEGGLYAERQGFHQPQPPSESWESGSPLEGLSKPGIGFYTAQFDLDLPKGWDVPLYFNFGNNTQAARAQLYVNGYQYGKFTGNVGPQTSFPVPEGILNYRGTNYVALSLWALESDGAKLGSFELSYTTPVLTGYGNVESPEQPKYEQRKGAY

Turning to `OC[C@H]1O[C@@H](SCc2cn(CCCOc3cccc4cccnc34)nn2)[C@H](O)[C@@H](O)[C@H]1O` [Compound 64], the half-inhibitory concentration (IC50) in the series on HCT-116 cells and in the series with MCF-7 cells was above 800 µM in each case. In series [1], the “Hydrolysis in the presence of β-galactosidase” value is reported as “did not undergo hydrolysis”.
